Source: patent US11655232B2 (Celgene Corporation, priority 2003, dated 2023)
≈ marks a conversion by molar mass, not a printed value. Where “and” joins values, the source holds several entries; their conditions need not be identical. Equal values may be shown once. Entries after “also recorded” stand apart in the source; their conditions may differ. Marks after values point to notes of the source that are not given here.

What was measured:
[1] = Moisture sorption/desorption; format: physicochemical
Procedure: Moisture sorption/desorption data were collected on a VTI SGA-100 moisture balance system. For sorption isotherms, a sorption range of 5 to 95% relative humidity (RH) and a desorption range of 95 to 5% RH in 10% RH increments was used for analysis. The sample was not dried prior to analysis. Equilibrium criteria used for analysis were less than 0.0100 weight percent change in 5 minutes with a maximum equilibration time of 3 hours if the weight criterion was not met. Data were not corrected for the initial moisture content of the samples.

[2] = Interconversion slurry experiments
Procedure: Interconversion experiments were carried out by making slurries containing two forms in a saturated solvent. The slurries were agitated for approximately 7-20 days at ambient temperature. The insoluble solids were recovered by filtration and analyzed using XRPD.

Desolvation by heating = format: physicochemical; details: about 150° C. for about five minutes
[3] = Compression and grinding, form check by XRPD; format: physicochemical; details: compressed into disks in Woods apparatus, 2 metric tons, ground gently
Procedure: (§1) Diffracted radiation was detected by a NaI scintillation detector.
Approximately 200 mg each of Forms A and B were compressed into disks in the Woods apparatus using 2 metric tons of pressure. The samples were subsequently scraped out, ground gently, and analyzed by XRPD. […] (See Table 7).

[4] = Temperature/relative humidity stress storage; format: physicochemical; details: about 85 days; room temperature/0% RH and 40° C./93% RH
[5] = Equilibrium solubility in dissolution medium; details: for Final Form of solids remaining from solubility experiment (XRPD) / Concentration: HCl buffer pH 1.8, 1% sodium lauryl sulfate; for Final Form of solids remaining from solubility experiment (XRPD): final time point
Procedure: A solid sample of 400-450 mg was stirred in 50 mL of dissolution medium (HCl buffer, pH 1.8, with 1% sodium lauryl sulfate) using a mechanical stir rod. Aliquots were filtered using 0.2-μm nylon syringe filters and immediately diluted 1 mL→50 mL, then 5 mL→25 mL with dissolution medium in Class A glassware, a final dilution factor of 250.
Dissolution and solubility samples solutions were analyzed by a Beckman DU 640 single-beam spectrophotometer. A 1.000-cm quartz cuvette and an analysis wavelength of 228.40 nm were utilized. The detector was zeroed with a cuvette filled with dissolution medium.
XRPD analyses were carried out on a Shimadzu XRD-6000 X-ray powder diffractometer using Cu Kα radiation. The instrument is equipped with a fine focus X-ray tube. The tube power and amperage were set at 40 kV and 40 mA, respectively. The divergence and scattering slits were set at 1° and the receiving slit was set at 0.15 mm. Diffracted radiation was detected by a NaI scintillation detector. A theta-two theta continuous scan at 3°/min (0.4 sec/0.02° step) from 2.5 to 40°2θ was used. A silicon standard was analyzed each day to check the instrument alignment. Samples were packed in an aluminum holder with silicon insert.

[6] = Intrinsic dissolution (Woods apparatus); format: physicochemical; details: for dissolution rates (estimated) / Final Form of undissolved solids after intrinsic dissolution (XRPD) / Intrinsic Dissolution #2 (rate): HCl buffer pH 1.8, 1% sodium lauryl sulfate; for Final Form of undissolved solids after intrinsic dissolution (XRPD) / Intrinsic Dissolution #1 (rate) / Intrinsic Dissolution #2 (rate): 37° C.; for Average Intrinsic Dissolution Rate: average of experiments #1 and #2; for Intrinsic Dissolution #1 (rate): experiment #1, 900 mL HCl buffer pH 1.8, 1% sodium lauryl sulfate; for Intrinsic Dissolution #1 (rate) / Intrinsic Dissolution #2 (rate): 50 rpm; for Intrinsic Dissolution #2 (rate): experiment #2
Procedure: Dissolution experiments were carried out in a VanKel VK6010-8 dissolution apparatus equipped with a VK650A heater/circulator. An intrinsic dissolution apparatus (Woods apparatus) was used. Samples were compressed at 1.5 metric tons (1000 psi) for 1 min using the Woods apparatus in a hydraulic press, giving a sample surface of 0.50 cm^2. […] The medium was degassed by vacuum filtration through a 0.22-μm nylon filter disk and maintained at 37° C. The apparatus was rotated at 50 rpm for each experiment. Aliquots were filtered immediately using 0.2-μm nylon syringe filters. In some cases, the undissolved solids were recovered and analyzed by X-ray powder diffraction (XRPD).
as §1

[7] = from 5 to 95% relative humidity

For `Nc1cccc2c1CN(C1CCC(=O)NC1=O)C2=O` (stereo not shown) [Form C, 3-(4-amino-1-oxo-1,3 dihydro-isoindol-2-yl)-piperidine-2,6-dione], the “hygroscopicity (summary)” value [1] was “not hygroscopic below about 85% RH”, the weight loss ([1]; at 95% relative humidity) was “about 6.03%” and the “weight gain on moisture sorption” value ([1]; from 5 to 85% relative humidity) was “does not exhibit a significant weight gain”. For the same compound, the “interconversion / stability in solvent system” value (shortened to “interconversion / stability”) ([2]; THF solvent system) was “typically converts to Form A”, the “interconversion / stability” value ([2]; acetone solvent system) was “most stable form” and the “interconversion / stability” value ([2]; aqueous solvent systems) was “typically converts to Form E”. For the same compound, the “form after heating (desolvation)” value (Desolvation by heating) was “will typically convert to Form A”.
With `Nc1cccc2c1CN(C1CCC(=O)NC1=O)C2=O` (single isomer, unassigned) [Form A, 3-(4-amino-1-oxo-1,3 dihydro-isoindol-2-yl)-piperidine-2,6-dione] the “Final Form after pressing (compression and grinding, XRPD)” value [3] was “does not cause a form change”, the “hygroscopicity (summary)” value [1] was “weakly or not hygroscopic” and the “weight lost from start to finish” value ([1]; at 5% relative humidity after drying from 95% back down to 5%) was “about 0.003 % by weight”. The “weight gain on moisture sorption” value [1, 7] was “does not exhibit a significant weight gain”, the “form after stress storage” value [4] was “typically does not convert to a different form” and the “Final Form of solids remaining from solubility experiment (XRPD)” value [5] was “unstable in the medium, converting to Form E”. The Concentration ([5]; time point 7 min, 25° C.) was 6000 µg/mL, the Concentration ([5]; time point 15 min, 25° C.) was 6110 µg/mL and the Concentration ([5]; time point 30 min, 25° C.) was 6200 µg/mL and 6160 µg/mL. For the same compound, the Concentration ([5]; time point 60 min, 25° C.) was 6100 µg/mL, the Concentration ([5]; time point 90 min, 25° C.) was 5460 µg/mL and the Concentration ([5]; time point 150 min, 25° C.) was 4700 µg/mL and 4730 µg/mL. For the same compound, the “thermodynamic stability among anhydrous polymorphs (summary)” value [2] was “most thermodynamically stable anhydrous polymorph”, the “interconversion / stability” value ([2]; acetone solvent system) was “can convert to Form C” and the “interconversion / stability” value ([2]; anhydrous solvent systems) was “tends to be stable”. The “interconversion / stability” value ([2]; aqueous solvent systems) was “can convert to Form B”, the interconversion ([2]; water systems, in the presence of Form E) was “tends to convert to Form E” and the “Cumulative Amount Dissolved per Unit Area” value ([6]; Experiment #1, 5 min) was 5.76 mg/cm2. For the same compound, the “Cumulative Amount Dissolved per Unit Area” value ([6]; Experiment #1, 10 min) was 7.73 mg/cm2, the “Cumulative Amount Dissolved per Unit Area” value ([6]; Experiment #1, 20 min) was 11.31 mg/cm2 and the “Cumulative Amount Dissolved per Unit Area” value ([6]; Experiment #1, 30 min) was 15.59 mg/cm2. For the same compound, the “Cumulative Amount Dissolved per Unit Area” value ([6]; Experiment #1, 45 min) was 21.98 mg/cm2, the “Cumulative Amount Dissolved per Unit Area” value ([6]; Experiment #1, 60 min) was 27.11 mg/cm2 and the “Cumulative Amount Dissolved per Unit Area” value ([6]; Experiment #1, 90 min) was 34.17 mg/cm2. For the same compound, the “Cumulative Amount Dissolved per Unit Area” value ([6]; Experiment #2, 5 min) was 4.50 mg/cm2, the “Cumulative Amount Dissolved per Unit Area” value ([6]; Experiment #2, 10 min) was 5.22 mg/cm2 and the “Cumulative Amount Dissolved per Unit Area” value ([6]; Experiment #2, 20 min) was 7.54 mg/cm2. For the same compound, the “Cumulative Amount Dissolved per Unit Area” value ([6]; Experiment #2, 30 min) was 11.46 mg/cm2, the “Cumulative Amount Dissolved per Unit Area” value ([6]; Experiment #2, 45 min) was 15.01 mg/cm2 and the “Cumulative Amount Dissolved per Unit Area” value ([6]; Experiment #2, 60 min) was 18.38 mg/cm2. For the same compound, the “Cumulative Amount Dissolved per Unit Area” value ([6]; Experiment #2, 90 min) was 24.38 mg/cm2, the “Cumulative Amount Dissolved per Unit Area” value ([6]; Experiment #2, 120 min) was 30.35 mg/cm2 and the “Cumulative Amount Dissolved per Unit Area” value ([6]; Experiment #2, 150 min) was 35.26 mg/cm2. The dissolution rates (estimated) [6] was 0.35 mg/cm²/min, the “Final Form of undissolved solids after intrinsic dissolution (XRPD)” value [6] was “did not change; also recorded: does not indicate a form change” and the “Average Intrinsic Dissolution Rate” value [6] was 0.29^a mg per cm^2 per minute. The “Intrinsic Dissolution #1 (rate)” value [6] was 0.35 mg per cm^2 per minute, the “Intrinsic Dissolution #2 (rate)” value [6] was 0.22 mg per cm^2 per minute and 0.22^a mg per cm^2 per minute and the “true intrinsic dissolution rate (believed)” value ([6]; judged from experiment #1, since #2 disk surface may have converted to Form E) was about 0.35 mg per cm^2 per minute.
In the case of `Nc1cccc2c1CN(C1CCC(=O)NC1=O)C2=O` (stereo not shown) [Form D, 3-(4-amino-1-oxo-1,3 dihydro-isoindol-2-yl)-piperidine-2,6-dione], the “hygroscopicity (summary)” value [1] is reported as “either weakly or not hygroscopic”, the “weight gain on moisture sorption” value [1, 7] is reported as “does not exhibit a significant weight gain” and the “interconversion / stability” value ([2]; THF solvent system) is reported as “capable of converting to Form A”. The “form after heating (desolvation)” value (Desolvation by heating) was “will typically convert to Form A”.
With `Nc1cccc2c1CN(C1CCC(=O)NC1=O)C2=O` (stereo not shown) [Form H, 3-(4-amino-1-oxo-1,3 dihydro-isoindol-2-yl)-piperidine-2,6-dione] the interconversion ([2]; slurried in water with either Forms A or B, about 14 days) was “can convert to Form E”.
With `Nc1cccc2c1CN(C1CCC(=O)NC1=O)C2=O` (single isomer, unassigned) [Form B, 3-(4-amino-1-oxo-1,3 dihydro-isoindol-2-yl)-piperidine-2,6-dione] the “Final Form after pressing (compression and grinding, XRPD)” value [3] was “does not cause a form change”, the “weight gain on moisture sorption” value [1, 7] was “does not exhibit a significant weight gain” and the “form after stress storage” value [4] was “does not convert to a different form”. The “Final Form of solids remaining from solubility experiment (XRPD)” value [5] was “Form B”, the Solubility ([5]; HCl buffer, pH 1.8, with 1% sodium lauryl sulfate, 25° C., estimated) was 5800 µg/mL (≈ 22.4 mM) and the Concentration stabilized ([5]; final three time points (180, 420, 650 min)) was 5600 to 5700 µg/mL. The “stability in water (suggested by remaining solids)” value ([5]; slurry in dissolution medium up to 650 min) was “good stability in water”, the Concentration ([5]; time point 7 min, 25° C.) was 1630 µg/mL and the Concentration ([5]; time point 15 min, 25° C.) was 2140 µg/mL. For the same compound, the Concentration ([5]; time point 30 min, 25° C.) was 2330 µg/mL, the Concentration ([5]; time point 60 min, 25° C.) was 2940 µg/mL and the Concentration ([5]; time point 90 min, 25° C.) was 3300 µg/mL and 3340 µg/mL. It also gave a Concentration ([5]; time point 180 min, 25° C.) of 5670 µg/mL, a Concentration ([5]; time point 420 min, 25° C.) of 5760 µg/mL and a Concentration ([5]; time point 650 min, 25° C.) of 5610 µg/mL. For the same compound, the “interconversion / stability” value ([2]; THF solvent system) was “typically converts to Form A”, the “interconversion / stability” value ([2]; acetone solvent system) was “typically converts to Form C” and the “interconversion / stability” value ([2]; anhydrous solvent systems) was “converts to other forms”. The interconversion ([2]; in the presence of water) was “can convert to Form E”, the “Cumulative Amount Dissolved per Unit Area” value ([6]; Experiment #1, 5 min) was 10.80^b mg/cm2 and the “Cumulative Amount Dissolved per Unit Area” value ([6]; Experiment #1, 10 min) was 6.85 mg/cm2. For the same compound, the “Cumulative Amount Dissolved per Unit Area” value ([6]; Experiment #1, 20 min) was 10.25 mg/cm2, the “Cumulative Amount Dissolved per Unit Area” value ([6]; Experiment #1, 30 min) was 14.35 mg/cm2 and the “Cumulative Amount Dissolved per Unit Area” value ([6]; Experiment #1, 45 min) was 20.57 mg/cm2. The “Cumulative Amount Dissolved per Unit Area” value ([6]; Experiment #1, 60 min) was 25.70 mg/cm2, the “Cumulative Amount Dissolved per Unit Area” value ([6]; Experiment #1, 90 min) was 34.34 mg/cm2 and the “Cumulative Amount Dissolved per Unit Area” value ([6]; Experiment #2, 5 min) was 5.04 mg/cm2. The “Cumulative Amount Dissolved per Unit Area” value ([6]; Experiment #2, 10 min) was 6.12 mg/cm2, the “Cumulative Amount Dissolved per Unit Area” value ([6]; Experiment #2, 20 min) was 7.73 mg/cm2 and the “Cumulative Amount Dissolved per Unit Area” value ([6]; Experiment #2, 30 min) was 12.72 mg/cm2. The “Cumulative Amount Dissolved per Unit Area” value ([6]; Experiment #2, 45 min) was 17.33 mg/cm2, the “Cumulative Amount Dissolved per Unit Area” value ([6]; Experiment #2, 60 min) was 21.93 mg/cm2 and the “Cumulative Amount Dissolved per Unit Area” value ([6]; Experiment #2, 90 min) was 31.64 mg/cm2. The “Cumulative Amount Dissolved per Unit Area” value ([6]; Experiment #2, 120 min) was 41.31 mg/cm2, the “Cumulative Amount Dissolved per Unit Area” value ([6]; Experiment #2, 150 min) was 49.54 mg/cm2 and the dissolution rates (estimated) [6] was 0.34 mg/cm²/min. For the same compound, the “Final Form of undissolved solids after intrinsic dissolution (XRPD)” value [6] was “did not change”, the “Average Intrinsic Dissolution Rate” value [6] was 0.34 mg per cm^2 per minute and the “Intrinsic Dissolution #1 (rate)” value [6] was 0.35 mg per cm^2 per minute. The “Intrinsic Dissolution #2 (rate)” value [6] was 0.32 mg per cm^2 per minute.
